Experimental data: US20220161456A1, “S[…] PRESERVATIVE COMPOSITION COMPRISING POLYMERIC BETAINE AND CARBAMATE” (Troy Corporation, priority 2019, published 2022)

System: Aspergillus niger (ATCC #6275)
Assay: EUCAST 96-well plate fungal growth inhibition (MIC)
Type: cell-based
Parameters: key to growth of Aspergillus niger in 96-well plates: (+) in each block indicates growth; (−) indicates no growth, i.e., the inhibitor was effective
Conditions: for MIC: Aspergillus niger ATCC 6275, 3 days at 35° C.
Protocol: (A) 0.17 g of 60% DPAB aqueous solution (ProTek® PBT or Polymeric Betaine EP or Polymeric Betaine Technical Grade Active Ingredient Wood Preservative, Troy Chemical Corporation, Newark, N.J.) was diluted in 9.83 g ethanol by stirring to form a concentrate containing 1% DPAB.
(B) 0.25 g of 40% IPBC solvent solution (Polyphase® AF-1, Troy Chemical Corporation, Newark, N.J.) was diluted in 9.75 g ethanol by stirring to form a concentrate containing 1% IPBC.
(C) 21.04 g of 60% DPAB aqueous solution (ProTek® PBT or Polymeric Betaine EP or Polymeric Betaine Technical Grade Active Ingredient Wood Preservative, Troy Chemical Corporation, Newark, N.J.), 6.25 g of 40% IPBC solvent solution (Polyphase AF-1, Troy Chemical Corporation, Newark, N.J.) and 22.74 g of ethanol were mixed and stirred. The resulting concentrate contained 25% polymeric betaine and 5% IPBC. The weight ratio of polymeric betaine to IPBC was 5:1. 0.33 g of this IPBC/polymeric betaine concentrate was diluted in 9.67 g of ethanol to form a use-dilution containing about 0.83% DPAB and 0.17% IPBC.
Solutions prepared as described above were tested in 96-well plates for their ability to inhibit fungal growth. The solutions were tested according to the EUCAST methodology as described in Rodriguez-Tudela et al. 2006 “Antifungal susceptibility testing in Aspergillus spp. according to EUCAST methodology,” the contents of which are incorporated by reference herein. The solutions were checked for inhibition against fungal organisms Aspergillus niger (ATCC #6275), Aureobasidium pullulans (ATCC #9348), Penicillium funiculosum (ATCC #11797) and Trichoderma pseudokoningii (ATCC #26801). This method is described below:
(1) Prepared preservative test wells by adding 2 microliters of each 1% preservative solution formulation to 198 microliters of 2xRPMI-MOPS-2% Glucose in each column “1” in duplicate.
(2) Added 100 microliters of 2xRPMI-MOPS-2% Glucose to the remaining columns.
(3) Performed 2-fold dilutions down the columns to column “12”.
(4) Prepared suspension of microorganisms from a 3-5 day old PDA slants by flooding slant with 1 mL deionized water and 0.1% Tween-20.
(5) Suspension strength was determined via hemocytometer then adjusted to 1×10^6 spores/mL with sterile deionized water.
(6) Added 100 microliters of the microorganism suspension to all wells except for sterility (−) controls containing test media. The water used to prepare the fungal suspensions was added to sterility (−) control wells.
(7) The inoculated 96-well plates were incubated for 3 days at 35° C.
(8) After incubation, fungal growth was evaluated by visual growth in test wells. Minimum inhibitory concentration (MIC) is recorded in ppm and defined as the lowest concentration of fungicide that produces no visual changes in turbidity in the test wells. (+) in each block indicates growth and (−) indicates no growth, i.e., the inhibitor was effective.
(9) The experiment is only considered valid if growth is observed in the positive (+) control wells and no growth is observed in the negative control wells.
In order to show more directly the possible synergy in the invention, the results are presented by applying the Synergy Index (S.I.). Minimal inhibitory concentration of the composition of this invention (mixture of DPAB and IPBC) are analyzed using the following equation:
MCA=Concentration of compound A in parts per million, acting alone, which prevents fungal growth at the reference point
MCA′=Concentration of compound A in parts per million, in the mixture, which prevents fungal growth at the reference point
MCB=Concentration of compound B in parts per million, acting alone, which prevents fungal growth at the reference point
MCB′=Concentration of compound B in parts per million, in the mixture, which prevents fungal growth at the reference point
When SI is greater than 2, antagonism is indicated. […] When SI is between 0.5 and 2, the action of biocides is additive.

| Compound | MIC [ppm] | growth of Aspergillus niger in 96-well plates (well 1, 50.0 ppm active) | growth of Aspergillus niger in 96-well plates (well 2, 25.0 ppm active) | growth of Aspergillus niger in 96-well plates (well 3, 12.5 ppm active) | growth of Aspergillus niger in 96-well plates (well 4, 6.25 ppm active) | growth of Aspergillus niger in 96-well plates (well 5, 3.13 ppm active) | growth of Aspergillus niger in 96-well plates (well 6, 1.56 ppm active) | growth of Aspergillus niger in 96-well plates (well 7, 0.78 ppm active) | growth of Aspergillus niger in 96-well plates (well 8, 0.39 ppm active) | growth of Aspergillus niger in 96-well plates (well 9, 0.20 ppm active) | growth of Aspergillus niger in 96-well plates (well 10, 0.10 ppm active) | growth of Aspergillus niger in 96-well plates (well 11, 0.05 ppm active) | growth of Aspergillus niger in 96-well plates (well 12, 0.02 ppm active) |
| --- | --- | --- | --- | --- | --- | --- | --- | --- | --- | --- | --- | --- | --- |
| didecyl bis(hydroxyethyl) ammonium borate [DPAB] | 12.50 | − | − | − | + | + | + | + | + | + | + | + | + |
| CCCCNC(=O)OCC#CI [IPBC, 3-iodo-2-propynyl butyl carbamate] | 0.78 | − | − | − | − | − | − | − | + | + | + | + | + |
